Measured values: patent publication US6737383B1, “Herbicidal oxadiazolidines” (priority 1999, dated 2004)

How the values were obtained:
sugar beet = assay: Test B pre/postemergence sugar beet; format: in vivo, Beta vulgaris
Outline: (§1)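 Test chemicals in a non-phytotoxic solvent mixture with surfactant were sprayed preemergence onto planted seeds and postemergence onto plants 2 to 18 cm tall (1- to 4-leaf stage). After twelve to sixteen days in a greenhouse, injury was visually rated against untreated controls from 0 (no effect) to 10 (complete control).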

smallflower flatsedge = assay: Test B flood test smallflower flatsedge; format: in vivo, Cyperus difformis
Outline: (§2)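 Plants were grown to the 2-leaf stage before treatment with test chemical, then held in a greenhouse for twelve to sixteen days. Injury was visually rated against untreated controls on a 0–10 scale, where 0 is no effect and 10 is complete control.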

giant foxtail = assay: Test B pre/postemergence giant foxtail; format: in vivo, Setaria faberii
Outline: as §1

soybean = assay: Test B pre/postemergence soybean; format: in vivo, Glycine max
Outline: as §1

pigweed = assay: Test B pre/postemergence pigweed; format: in vivo, Amaranthus retroflexus
Outline: as §1

crabgrass = assay: Test B pre/postemergence crabgrass; format: in vivo, Digitaria sanguinalis
Outline: as §1

corn = assay: Test B pre/postemergence corn; format: in vivo, Zea mays
Outline: as §1

rice = assay: Test B flood test rice; format: in vivo, Oryza sativa
Outline: as §2

purple nutsedge = assay: Test B pre/postemergence purple nutsedge; format: in vivo, Cyperus rotundus
Outline: as §1

blackgrass = assay: Test B pre/postemergence blackgrass; format: in vivo, Alopecurus myosuroides
Outline: as §1

velvetleaf = assay: Test B pre/postemergence velvetleaf; format: in vivo, Abutilon theophrasti
Outline: as §1

bamyardgrass = assay: Test B flood test barnyardgrass; format: in vivo, Echinochloa crus-galli
Outline: as §2

cocklebur = assay: Test B pre/postemergence cocklebur; format: in vivo, Xanthium strumarium
Outline: as §1

wild oat = assay: Test B pre/postemergence wild oat; format: in vivo, Avena fatua
Outline: as §1

surinam grass = assay: Test B pre/postemergence surinam grass; format: in vivo, Brachiaria decumbens
Outline: as §1

bedstraw = assay: Test B pre/postemergence bedstraw; format: in vivo, Galium aparine
Outline: as §1

[1] = Preemergence, Rate 62 g/ha, scale of 0 to 10 where 0 is no effect and 10 is complete control
[2] = Preemergence, Rate 125 g/ha, 0 is no effect, 10 is complete control
[3] = Preemergence, Rate 250 g/ha, scale 0 to 10, 0 is no effect, 10 is complete control
[4] = Preemergence, Rate 500 g/ha, scale 0 to 10 (0 no effect, 10 complete control)
[5] = Rate 62 g/ha, Postemergence, scale of 0 to 10 where 0 is no effect and 10 is complete control
[6] = Rate 125 g/ha, Postemergence, scale 0 to 10
[7] = Rate 500 g/ha, Postemergence, scale 0 to 10
[8] = Rate 62 g/ha, headed Pre-emergence (flood test species), scale 0 to 10 (0 no effect, 10 complete control)
[9] = Rate 125 g/ha, Pre-emergence, flood test species, scale 0 to 10 where 0 is no effect and 10 is complete control
[10] = Rate 250 g/ha, Pre-emergence, flood-test species, scale 0 to 10, 0 is no effect, 10 is complete control
[11] = Rate 500 g/ha, headed Pre-emergence (flood test species), scale 0 to 10 (0 no effect, 10 complete control)

Cc1nc(C)c(Cn2c(=O)on(C(=O)N(c3ccc(F)cc3)C(C)C)c2=O)s1 [Compound 192]
10: Giant foxtail plant response rating (giant foxtail; [3]) | Giant foxtail plant response rating (giant foxtail; [4])
6: Crabgrass plant response rating (0 to 10 scale) (crabgrass; [2]) | Blackgrass plant response rating (blackgrass; [3]) | Velvetleaf plant response rating (velvetleaf; [4]) | B. signalgrass plant response rating (surinam grass; [3]) | B. signalgrass plant response rating (surinam grass; [4])
5: Sugarbeets plant response rating (sugar beet; [7]) | Redroot pigweed plant response rating (pigweed; [3]) | Blackgrass plant response rating (blackgrass; [1]) | Blackgrass plant response rating (0 to 10 scale) (blackgrass; [2]) | Velvetleaf plant response rating (velvetleaf; [3]) | Cocklebur plant response rating (cocklebur; [7]) | Wild oats plant response rating (wild oat; [3])
2: Soybean plant response rating (soybean; [3]) | Soybean plant response rating (soybean; [4]) | Redroot pigweed plant response rating (0 to 10 scale) (pigweed; [2]) | Crabgrass plant response rating (crabgrass; [1]) | Crabgrass plant response rating (crabgrass; [7]) | Velvetleaf plant response rating (velvetleaf; [6]) | Plant response rating (0 to 10; 0 is no effect, 10 is complete control), Cocklebur (cocklebur; Rate 250 g/ha, Postemergence) | B. signalgrass plant response rating (surinam grass; Rate 500 g/ha, Postemergence, scale 0 to 10, 0 no effect, 10 complete control)
0: Sugarbeets plant response rating (sugar beet; [1]) | Sugarbeets plant response rating (0 to 10 scale) (sugar beet; [2]) | Sugarbeets plant response rating (sugar beet; [3]) | Sugarbeets plant response rating (sugar beet; [5]) | Sugarbeets plant response rating (sugar beet; [6]) | Plant response rating (0 to 10; 0 is no effect, 10 is complete control), Sugarbeets (sugar beet; Rate 250 g/ha, Postemergence) | S. Flatsedge plant response rating (smallflower flatsedge; [8]) | S. Flatsedge plant response rating (smallflower flatsedge; [9]) | S. Flatsedge plant response rating (smallflower flatsedge; [10]) | S. Flatsedge plant response rating (smallflower flatsedge; Rate 500 g/ha, Pre-emergence, flood test species, scale 0 to 10 (0 no effect, 10 complete control)) | Giant foxtail plant response rating (giant foxtail; [5]) | Giant foxtail plant response rating (giant foxtail; [6]) | Plant response rating (0 to 10; 0 is no effect, 10 is complete control), Giant foxtail (giant foxtail; Rate 250 g/ha, Postemergence) | Soybean plant response rating (soybean; [1]) | Soybean plant response rating (0 to 10 scale) (soybean; [2]) | Redroot pigweed plant response rating (pigweed; [1]) | Redroot pigweed plant response rating (pigweed; [5]) | Corn plant response rating (corn; [1]) | Corn plant response rating (0 to 10 scale) (corn; [2]) | Corn plant response rating (corn; [3]) | Corn plant response rating (corn; [5]) | Corn plant response rating (corn; [6]) | Plant response rating (0 to 10; 0 is no effect, 10 is complete control), Corn (corn; Rate 250 g/ha, Postemergence) | Corn plant response rating (corn; [7]) | Rice plant response rating (rice; [8]) | Rice plant response rating (rice; [9]) | Rice plant response rating (rice; [10]) | Plant response rating, Rice (rice; [11]) | Nutsedge plant response rating (purple nutsedge; [1]) | Nutsedge plant response rating (0 to 10 scale) (purple nutsedge; [2]) | Nutsedge plant response rating (purple nutsedge; [5]) | Nutsedge plant response rating (purple nutsedge; [6]) | Plant response rating (0 to 10; 0 is no effect, 10 is complete control), Nutsedge (purple nutsedge; Rate 250 g/ha, Postemergence) | Nutsedge plant response rating (purple nutsedge; [7]) | Blackgrass plant response rating (blackgrass; [5]) | Blackgrass plant response rating (blackgrass; [6]) | Plant response rating (0 to 10; 0 is no effect, 10 is complete control), Blackgrass (blackgrass; Rate 250 g/ha, Postemergence) | Velvetleaf plant response rating (velvetleaf; [1]) | Velvetleaf plant response rating (velvetleaf; [5]) | Barnyardgrass plant response rating (bamyardgrass; [8]) | Barnyardgrass plant response rating (bamyardgrass; [9]) | Barnyardgrass plant response rating (bamyardgrass; [10]) | Plant response rating, Barnyardgrass (bamyardgrass; [11]) | Cocklebur plant response rating (cocklebur; [1]) | Cocklebur plant response rating (0 to 10 scale) (cocklebur; [2]) | Cocklebur plant response rating (cocklebur; [3]) | Cocklebur plant response rating (cocklebur; [4]) | Cocklebur plant response rating (cocklebur; [5]) | Wild oats plant response rating (wild oat; [1]) | Wild oats plant response rating (wild oat; [5]) | Wild oats plant response rating (wild oat; [6]) | Plant response rating (0 to 10; 0 is no effect, 10 is complete control), Wild oats (wild oat; Rate 250 g/ha, Postemergence) | B. signalgrass plant response rating (surinam grass; [1]) | B. signalgrass plant response rating (0 to 10 scale) (surinam grass; [2]) | B. signalgrass plant response rating (surinam grass; [5]) | B. signalgrass plant response rating (surinam grass; Rate 125 g/ha, Postemergence, scale 0 (no effect) to 10 (complete control)) | Plant response rating, B. signalgrass (surinam grass; Rate 250 g/ha, Postemergence, scale 0 to 10, 0 is no effect, 10 is complete control) | Bedstraw plant response rating (bedstraw; [1]) | Bedstraw plant response rating (0 to 10 scale) (bedstraw; [2]) | Bedstraw plant response rating (bedstraw; [3]) | Bedstraw plant response rating (bedstraw; [4]) | Bedstraw plant response rating (bedstraw; [5]) | Bedstraw plant response rating (bedstraw; [6]) | Plant response rating (0 to 10; 0 is no effect, 10 is complete control), Bedstraw (bedstraw; Rate 250 g/ha, Postemergence) | Bedstraw plant response rating (bedstraw; [7])
1: Giant foxtail plant response rating (giant foxtail; [7]) | Redroot pigweed plant response rating (pigweed; [6]) | Crabgrass plant response rating (crabgrass; [5]) | Crabgrass plant response rating (crabgrass; [6]) | Plant response rating (0 to 10; 0 is no effect, 10 is complete control), Crabgrass (crabgrass; Rate 250 g/ha, Postemergence) | Cocklebur plant response rating (cocklebur; [6])
9: Giant foxtail plant response rating (0 to 10 scale) (giant foxtail; [2]) | Redroot pigweed plant response rating (pigweed; [4]) | Crabgrass plant response rating (crabgrass; [4])
7: Redroot pigweed plant response rating (pigweed; [7]) | Crabgrass plant response rating (crabgrass; [3]) | Blackgrass plant response rating (blackgrass; [4]) | Wild oats plant response rating (wild oat; [4])
4: Corn plant response rating (corn; [4])
8: Sugarbeets plant response rating (sugar beet; [4]) | Giant foxtail plant response rating (giant foxtail; [1])
3: Soybean plant response rating (soybean; [5]) | Soybean plant response rating (soybean; [6]) | Plant response rating (0 to 10; 0 is no effect, 10 is complete control), Soybean (soybean; Rate 250 g/ha, Postemergence) | Soybean plant response rating (soybean; [7]) | Plant response rating (0 to 10; 0 is no effect, 10 is complete control), Redroot pigweed (pigweed; Rate 250 g/ha, Postemergence) | Plant response rating (0 to 10; 0 is no effect, 10 is complete control), Velvetleaf (velvetleaf; Rate 250 g/ha, Postemergence)
